From US11731972B2, “Spiro compounds as glycosidase inhibitors” (Asceneuron SA, priority 2018, dated 2023)

Each molecule was assayed against His-Tagged hOGA (human O-GlcNAcase) (Homo sapiens (Human), UniProt O60502) (assay: Human O-GlcNAcase enzyme inhibition assay (Example B01)). Conditions: OGA enzyme inhibition assay; FL-GlcNAc substrate, 60 min, room temperature, pH 6.5.
Assay type: biochemical
Method: Example B01: Human O-GlcNAcase Enzyme Inhibition Assay
5 μl of the appropriate concentration of a solution of inhibitor in McIlvaine's Buffer (pH 6.5) in 2% DMSO (for a dose response curve calculation) is added into each well of a 384-well plate (Greiner, 781900). Then, 20 nM of His-Tagged hOGA and 10 μM of FL-GlcNAc (Fluorescein mono-beta-D-(2-deoxy-2-N-acetyl) glucopyranoside; Marker Gene Technologies Inc, M1485) were added to the 384-well plate for a final volume of 20 μl. After incubation for 60 min at room temperature, the reaction was terminated by the addition of 10 μL of stop buffer (200 mM glycine, pH 10.75). The level of fluorescence (λexc 485 nm; (λemm 520 nm) was read on a PHERAstar machine. The amount of fluorescence measured was plotted against the concentration of inhibitor to produce a sigmoidal dose response curve to calculate an IC50. All individual data was corrected by subtraction of the background (Thiamet 3 uM=100% inhibition) whilst 0.5% DMSO was considered as the control value (no inhibition).

Chain of His-Tagged hOGA (human O-GlcNAcase) (O60502 whole entry): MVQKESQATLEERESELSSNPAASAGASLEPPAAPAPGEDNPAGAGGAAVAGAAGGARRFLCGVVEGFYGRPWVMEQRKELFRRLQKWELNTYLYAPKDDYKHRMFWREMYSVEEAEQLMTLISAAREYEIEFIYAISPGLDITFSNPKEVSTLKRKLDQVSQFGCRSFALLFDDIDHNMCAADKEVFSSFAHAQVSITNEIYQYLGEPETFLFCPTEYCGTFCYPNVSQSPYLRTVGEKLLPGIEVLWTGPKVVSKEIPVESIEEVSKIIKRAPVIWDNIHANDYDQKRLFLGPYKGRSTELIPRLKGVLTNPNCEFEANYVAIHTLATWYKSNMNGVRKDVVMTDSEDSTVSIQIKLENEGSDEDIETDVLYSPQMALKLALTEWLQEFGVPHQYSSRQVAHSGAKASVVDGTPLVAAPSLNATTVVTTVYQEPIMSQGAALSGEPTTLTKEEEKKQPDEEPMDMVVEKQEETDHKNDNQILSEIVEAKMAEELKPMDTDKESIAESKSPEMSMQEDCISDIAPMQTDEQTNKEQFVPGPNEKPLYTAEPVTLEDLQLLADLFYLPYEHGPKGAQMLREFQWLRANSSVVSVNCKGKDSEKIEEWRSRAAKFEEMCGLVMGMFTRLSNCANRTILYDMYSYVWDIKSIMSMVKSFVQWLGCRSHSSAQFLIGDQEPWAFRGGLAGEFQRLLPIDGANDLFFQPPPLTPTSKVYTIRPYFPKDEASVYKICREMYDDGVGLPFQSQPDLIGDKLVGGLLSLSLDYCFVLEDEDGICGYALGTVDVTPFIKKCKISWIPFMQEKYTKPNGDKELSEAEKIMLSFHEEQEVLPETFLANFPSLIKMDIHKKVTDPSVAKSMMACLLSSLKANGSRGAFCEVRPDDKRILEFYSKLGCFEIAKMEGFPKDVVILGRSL

| SMILES | IC50 |
| --- | --- |
| Cc1cc(N2C(=O)NC3(CCN(C(C)c4ccc5scnc5c4)CC3)C2=O)cc(C)n1 (racemic) [Example 60] | < 50 nM |
| Cc1ccc(N2C(=O)NC3(CCN(C(C)c4ccc5scnc5c4)CC3)C2=O)cn1 (racemic) [Example 61] | 50 to 200 nM |
| CC(c1ccc2scnc2c1)N1CCC2(CC1)NC(=O)N(c1cncnc1)C2=O (racemic) [Example 62] | 50 to 200 nM |
| CC(c1ccc2scnc2c1)N1CCC2(CC1)NC(=O)N(c1ccc(F)cc1)C2=O (racemic) [Example 63] | 50 to 200 nM |
| CC(c1ccc2scnc2c1)N1CCC2(CC1)NC(=O)N(c1cccc(S(C)(=O)=O)c1)C2=O (racemic) [Example 64] | 50 to 200 nM |
| CC(c1ccc2scnc2c1)N1CCC2(CC1)NC(=O)N(c1ccc(Cl)cc1)C2=O (racemic) [Example 65] | 50 to 200 nM |
| Cc1cc(CN2C(=O)NC3(CCN(C(C)c4ccc5scnc5c4)CC3)C2=O)cc(C)n1 (racemic) [Example 66] | 50 to 200 nM |
| Cc1cc(CN2C(=O)NC3(CCN(C(C)c4ccc5scnc5c4)CC3)C2=O)ccn1 (racemic) [Example 67] | 50 to 200 nM |
| Cc1cc(N2CC3(CCN(C(C)c4ccc5scnc5c4)CC3)CC2=O)n2nccc2n1 (racemic) [Example 72] | 1000 to 10000 nM |
| CC(c1ccc2scnc2c1)N1CCC2(CC1)CC(=O)N(c1ncccn1)C2 (racemic) [Example 73] | 1000 to 10000 nM |
| CC(c1ccc2c(c1)OCC2)N1CCC2(CC1)C(=O)N(Cc1ccc(C#N)cc1)C(=O)N2C (racemic) [Example 74] | 1000 to 10000 nM |
| CC(c1ccc2scnc2c1)N1CCC2(CC1)C(=O)N(Cc1ccc(C#N)cc1)C(=O)N2C (racemic) [Example 75] | 1000 to 10000 nM |
| CC(c1ccc2c(c1)OCC2)N1CCC2(CC1)C(=O)N(c1ccc(C#N)cc1)C(=O)N2C (racemic) [Example 76] | 1000 to 10000 nM |
| CC(c1ccc2scnc2c1)N1CCC2(CC1)C(=O)N(Cc1ccc(S(C)(=O)=O)cc1)C(=O)N2C (racemic) [Example 77] | 1000 to 10000 nM |
| CC(c1ccc2scnc2c1)N1CCC2(CC1)NC(=O)N(Cc1ccc(S(C)(=O)=O)cc1)C2=O (stereo not shown) [Example 10] | 50 to 200 nM |

The next lines start with the values.

| IC50 | SMILES |
| --- | --- |
| 50 to 200 nM | CC(=O)Nc1ncc(CN2CCC3(CC2)NC(=O)N(c2cc(C)nc(C)c2)C3=O)s1 (racemic) [IA2] |
| 50 to 200 nM | CC(=O)Nc1ncc(CN2CCC3(CC2)NC(=O)N(Cc2ccc(C)nc2)C3=O)s1 (racemic) [IA3] |
| < 50 nM | CC(=O)Nc1ncc(CN2CCC3(CC2)NC(=O)N(Cc2cc(C)nc(C)c2)C3=O)s1 (racemic) [IA4] |
| < 50 nM | CC(=O)Nc1ncc(CN2CCC3(CC2)NC(=O)N(Cc2ccnc(C)c2)C3=O)s1 (racemic) [IA5] |
| < 50 nM | CSc1cnc(N2CC3(CCN(Cc4cnc(NC(C)=O)s4)CC3)NC2=O)nc1 (racemic) [IA6] |
| 200 to 1000 nM | CC(=O)Nc1ncc(CN2CCC3(CC2)CC(=O)N(c2ccc(C#N)cc2)C3)s1 (racemic) [IA7] |
| 50 to 200 nM | CC(=O)Nc1ncc(CN2CCC3(CC2)NC(=O)N(Cc2ccc(C(F)(F)F)nc2)C3=O)s1 [IA1] |
